Results taken from patent publication US20040186082A1, “Enhanced phototherapy for the treatment of cancer and autoimmune disease” (priority 2003, published 2004).

System: psoriatic lesion on the leg
Assay: Treatment of a psoriatic lesion with topical ointment and UVB irradiation (single patient)
Assay type: in vivo
Settings: VES 20 mg/gram ointment applied 1 day after provitamin D + UVB (3 MED); within 12 hours
Method: Treatment of psoriasis with UVB irradiation. A patient with a ½ inch round psoriatic lesion on the leg was treated with provitamin D (35 mg/gram ointment) and irradiated with UVB (3 MED). […] The formally lesional tissue looked like normal healthy tissue.

## Cc1c(C)c2c(c(C)c1OC(=O)CCC(=O)O)CC[C@@](C)(CCC[C@H](C)CCC[C@H](C)CCCC(C)C)O2 [Vitamin E succinate]
  appearance of the treated tissue (induration, redness): the tissue was not indurated and the redness disappeared
